Tested on: psoriasis
Assay: Case report: psoriasis in a patient treated with midodrine for hypotension

COc1ccc(OC)c(C(O)CNC(=O)CN)c1 (centres unmarked) [midodrine]
improvement of the patient's psoriasis (person with moderate psoriasis, midodrine five mg three times a day for three months): ≥ 90%
psoriasis after discontinuing use of midodrine (same patient, after discontinued use of midodrine): psoriasis returned
